In US12168673B2 (Mitopower, Inc., priority 2022, dated 2024):
Where two headings read alike, the source gives them in different places.

What was measured:
Huh-7 Cells = assay: Cellular NAD+ levels in Huh-7 cells (LCMS/MS); assay type: cell-based; conditions: 125 μm, four hours of incubation
Protocol: Huh-7 Cells, sourced from NCCS Pune, were cultured in RPMI media containing FBS & Antibiotics. Cells from different flasks (80-90% confluent) were pooled into a 15 mL conical tube and centrifuged for 5 mins at 1200 rpm for 5 mins. The supernatant solution was discarded, and the pellet was washed with 5 mL sterile PBS (without Ca^2+ and Mg^2+). The tube was then centrifuged at 1200 rpm for 5 mins and the supernatant was discarded. The cell pellet was resuspended in 7 mL of RPMI media, and a cell count was done using 10 uL of the cell solution. 1.5 million cells from the cell solution were seeded into 1.5 mL microcentrifuge tubes. […] The tubes were placed in racks and gently swirled to mix the compounds into the media containing the cells. These tubes were then incubated for 4 hours in a 37° C. incubator at 5% CO2. After 4 hours of incubation the cells were spun down at 1000 rpm for 10 mins, the supernatant was discarded carefully, and cells were snap frozen in liquid nitrogen. When the samples were run, the extraction of the cells was on ice, cells were lysed using 20 uL deionized water and then ice cold 80% methanol containing the internal standard—Rac-Tenofovir D was added. The tubes were then vortexed at 2500 rpm for 8 minutes and then centrifuged at […] for 10 minutes. 150 uL of the supernatant was carefully transferred to HPLC vials and was analyzed for NAD^+ on the Abscised 4000 Q Trap LCMS/MS system. A C18, 3.5 μm, 2.1×100 mm, Bridge Column was used in the LC. The mobile phase consisted of 10 mM ammonium acetate with 0.1% acetic acid & 0.1% hexylamine as Solvent-A and 10 mM Ammonium acetate with 0.1% acetic acid and 0.1% hexylamine in 95/5 MeOH/H2O as Solvent-B. The gradient used was 0 mins-0.0% B, 0.5 mins-100% B, 1.5 mins-100% B, 3.0 mins-100% B, 3.1 mins-0.0% B, 7.0-STOP. The column flow rate was 0.5 mL/min. The sample injection volume was […].

Kinetic solubility = assay type: physicochemical; conditions: for solubility at 1.5 h: aqueous buffer, kinetic from dmso stock, 0.1 M phosphate buffered saline pH 7.4, target 100 μM; for % Solubility: at 100 μM, 0.1 M phosphate buffered saline pH 7.4
Protocol: The target compound concentration was 100 μM (kinetic), the assay buffer was 0.1 M phosphate buffered saline pH 7.4, the mixing period was 1.5 h (kinetic). The sample was prepared by centrifugation or filtration and the detection method used was HPLC with UV-vis spectrometry.

[1] = Caco-2 permeability assay; conditions: human
Excerpt: The endpoint measured is the intestinal permeability expressed as apparent permeability—Papp value. All permeability values are represented as ×10^−6 cm/sec.

human hepatocytes = assay: Human hepatocyte stability
Protocol: 10 mM stock solution of test compound was prepared in DMSO and diluted to a concentration of 1 mM with DMSO. Working concentration of 2 μM was prepared by further dilution with PBS. Preincubation mixture of 150 μL of hepatocyte cell suspension (1,000,000 cells/mL, INVITROGRO HT medium buffer), was added to vials for preincubation for 10 min @37° C.
150 μL of 2 μM working stock of the test compound was added to the cell suspension and incubated at @37 C at 500 rpm. The reaction was stopped at 0, 15, 30, 60 and 90 min by precipitating 50 μL of the incubation mixture with 150 μL of acetonitrile. Samples were vortexed for 5 min at 1200 rpm and centrifuged at 4000 rpm for 10 min. 150 μL of the supernatant was diluted with 150 μL of water and injected in MS system (SCIEX, API 4500 Q Trap) for analysis.

Human Plasma Protein = assay: in vitro; conditions: human, plasma
Protocol: The test compounds were weighed and prepared as 10 mM stocks in 100% DMSO. 10 μM is the final test concentration for all compounds.
The samples were prepared by spiking test compound(s) in plasma at 10 μM final concentration. 200 μL of plasma containing the test compound was added into the donor well (RED Chamber) of the insert. Simultaneously 350 μL of dialysis buffer (1×PBS) was added into the receiver well (white chamber). Two measurements were made for each test compound. The plate was covered with a sealer and incubated at 37° C. degrees on an orbital shaker at 500 rpm for 5 hours.
After incubation, 25 μl of plasma (RED chamber) and 25 μl of buffer (white chamber) samples were separately collected into separate centrifugation tubes. Plasma and buffer samples were precipitated with 200 μL of 100% acetonitrile containing internal standards. 25 μl of T0 (T Zero) plasma samples (samples before 5 hours incubation) were collected (To samples were processed immediately after the preparation of plasma working stock solution. These samples serve as a measure for calculating the percentage recovery of the test compound and precipitated using 100% acetonitrile containing internal standards). The samples were vortexed at 1000 rpm for 5 min and centrifuged at 4000 rpm for 10 min. The supernatant was diluted 2-fold with water and injected into LC-MS/MS.
The % of Plasma bound/unbound fraction was calculated by the following equation: % Unbound or % free=100*(Fc/Tc); % Recovery=100 (Fc+Tc)/[…] where Tc=Total compound concentration as determined by the calculated concentration on the plasma side of the membrane (concentration in plasma chamber), Fc=Free compound concentration as determined by the calculated concentration on the buffer side of the membrane (concentration in buffer chamber) and T0=Total compound concentration as determined before dialysis.

[2] = read-out: Mean Solubility (μg/mL)

O=C(OC[C@H]1OC(O)[C@H](O)[C@@H]1O)c1ccccn1 (stereo partly shown) [Compound 102, (3,4,5-trihydroxytetrahydrofuran-2-yl) methyl picolinate]
NAD+ level increase compared to untreated cells (Huh-7 Cells): showed an increase | solubility at 1.5 h (Kinetic solubility; read-out: Mean Solubility): 105 µM | solubility at 1.5 h (Kinetic solubility; [2]): 26.9 µg/mL | % Solubility (Kinetic solubility): 100% | Papp A→B [1]: 0.9 ×10⁻⁶ cm/s | Papp B→A [1]: 0.8 ×10⁻⁶ cm/s | efflux ratio [1]: 1 | recovery ([1]; Caco-2, % Recovery A to B): 94.9% | recovery ([1]; Caco-2, % Recovery B to A): 90.7% | clearance in human hepatocytes (in words) (human hepatocytes): medium clearance | protein binding (footnote, in words) (Human Plasma Protein): Compounds 100 and 102 were not detected indicating no protein binding as shown in Table 12, above.

O=C(OC1O[C@H](CO)[C@@H](O)[C@H]1O)c1cccnc1 (stereo partly drawn) [Compound 100, (3R, 4S, 5R)-3,4-dihydroxy-5-(hydroxymethyl) tetrahydrofuran-2-yl nicotinate]
NAD+ level increase compared to untreated cells (Huh-7 Cells): showed an increase | solubility at 1.5 h (Kinetic solubility; read-out: Mean Solubility): 96.5 µM | solubility at 1.5 h (Kinetic solubility; [2]): 24.6 µg/mL | % Solubility (Kinetic solubility): 96% | Papp A→B [1]: 0.5 ×10⁻⁶ cm/s | Papp B→A [1]: 0.6 ×10⁻⁶ cm/s | efflux ratio [1]: 1.2 | recovery ([1]; Caco-2, % Recovery A to B): 98.5% | recovery ([1]; Caco-2, % Recovery B to A): 89% | clearance in human hepatocytes (in words) (human hepatocytes): medium clearance | % Parent Remaining (human hepatocytes; 0 mins): 100% | % Parent Remaining (human hepatocytes; 15 mins): 97% | % Parent Remaining (human hepatocytes; 30 mins): 87.6% | % Parent Remaining (human hepatocytes; 60 mins): 73.0% | % Parent Remaining (human hepatocytes; 90 mins): 66.4% | protein binding (footnote, in words) (Human Plasma Protein): Compounds 100 and 102 were not detected indicating no protein binding as shown in Table 12, above.

COC(=O)[C@@H](C)NP(=O)(OC[C@H]1OC(OC(=O)c2cccnc2)[C@H](O)[C@@H]1O)Oc1ccccc1 (stereo partly drawn) [Compound 101, (3R, 4S, 5R)-3,4-dihydroxy-5-(((((1-methoxy-1-oxopropan-2-yl)amino)(phenoxy)phosphoryl)oxy)methyl)tetrahydrofuran-2-yl nicotinate]
NAD+ level increase compared to untreated cells (Huh-7 Cells): showed an increase | solubility at 1.5 h (Kinetic solubility; read-out: Mean Solubility): 117 µM | solubility at 1.5 h (Kinetic solubility; [2]): 58 µg/mL | % Solubility (Kinetic solubility): 100% | Papp A→B [1]: 0.2 ×10⁻⁶ cm/s | Papp B→A [1]: 6.1 ×10⁻⁶ cm/s | efflux ratio [1]: 39 | recovery ([1]; Caco-2, % Recovery A to B): 86.5% | recovery ([1]; Caco-2, % Recovery B to A): 87.9% | clearance in human hepatocytes (in words) (human hepatocytes): high clearance | % Parent Remaining (human hepatocytes; 0 mins): 100% | % Parent Remaining (human hepatocytes; 15 mins): 43% | % Parent Remaining (human hepatocytes; 30 mins): 20.1% | % Parent Remaining (human hepatocytes; 60 mins): 6.4% | % Parent Remaining (human hepatocytes; 90 mins): 2.0% | Remarks (binding class) (Human Plasma Protein): Medium binding
